What was measured:
[1] = system: lung cancer patients, EGFR or KRAS mutation; conditions: patients who harbor an EGFR mutation; cited from earlier work
[2] = system: NSCLC patients with STK11/LKB1 and/or KEAP1 mutations; assay: Clinical data, pembrolizumab plus first-line chemotherapy in NSCLC patients; assay type: in vivo, human
From the text: FIG. 1A is a graph illustrating response rates to pemetrexed/platin/pembrolizumab (PCP) chemo-immunotherapy in STK11 and KEAP1-defined wild type (wt) and mutant subgroups. FIG. 1B is a graph illustrating response rates to pemetrexed/platin/pembrolizumab (PCP) chemo-immunotherapy in STK11 and KEAP1-defined wild type (wt) and mutant subgroups. […] FIG. 1D a Kaplan-Mayer graph illustrating overall survival of STK11/LKB1 and KEAP1 mutant or wt defined patients.

Row | Compound | response rate [1] [%] | refractory disease on pembrolizumab plus standard care first-line chemotherapies ([2]; NSCLC patients (n=139), STK11/LKB1 and/or KEAP1 mutant vs wild type) | clinical benefit (survival) of adding pembrolizumab to chemotherapy ([2]; patients with STK11 and/or KEAP1 genomic alterations, vs chemotherapy alone)
1 | C#Cc1cccc(Nc2ncnc3cc(OCCOC)c(OCCOC)cc23)c1 [erlotinib] | 60 |  | 
2 | pembrolizumab |  | higher percentage of patients with refractory diseases | did not result in clinical benefit
